These are literature values, as cited in patent publication US20060009430A1, “Composition for the prevention and treatment of the detrimental effects of dihydrotestosterone” (priority 2004, published 2006).

For series [1], the system named is localized prostate cancer. Particulars: 15 mg twice per day orally, 3 weeks.
The next series deals with prostate. As to conditions: rats, in combination with finasteride.
Another series relates to advanced prostate cancer. As to conditions: men with most dietary selenium versus lowest intake.
The subject of another series is prostate cancer. As to conditions: 200 μg daily for 4.5 years.
The test system of another series is cancer. As to conditions: in vivo.

On to `CC(C)=CCC/C(C)=C/C=C/C(C)=C/C=C/C(C)=C/C=C/C=C(C)/C=C/C=C(C)/C=C/C=C(\C)CCC=C(C)C` [lycopene], for which, in series [1] (biopsy), the metastasis result was “reduced metastasis”; the regression and malignancy result is “signs of regression and reduced malignancy”; the tumor size entry is recorded as “smaller tumors”. Further, in series [1] (versus no intervention), the PSA entry is given as “significant reduction”.
Take `O=c1c(O)c(-c2ccc(O)c(O)c2)oc2cc(O)cc(O)c12` [quercetin]: in the series with prostate, the prostate weight entry is on record as “reduce prostate weight”.
Take `[Se]` [selenium]: in the series on advanced prostate cancer, the “fewer cases of advanced prostate cancer” value was 65%. Further, in the series on prostate cancer, the skin cancer result is recorded as “no changes”; the “total, colorectal and lung cancer” value is reported as “significant benefits”. Besides, the “reduction in the incidence of prostate cancer (secondary endpoint)” value in the series with prostate cancer (6.5 years follow-up, 974 men) is on record as 63%. Further, in the series with prostate cancer (placebo group 35), the “number that developed prostate cancer” value is on record as 13. Besides, in the series on cancer, the “reduction of cancer mortality and morbidity” value was “approximately 50%”; the “risk of lung, prostate and colon cancer” value is reported as “reduced significantly”.
